A word on the solubility: it is how much of the substance goes into solution per volume. Higher therefore signals much dissolved substance.

Drawing on patent publication US20210246157A1, “CAMPTOTHECIN DERIVATIVES AND PREPARATION METHODS AND APPLICATIONS THEREOF” (priority 2018, published 2021), this text covers IC50 and solubility for seven molecules.

Values after ≈ are worked out from the molar mass of the structure shown.

The subject of one data set is HepG2. The data set can be described thus: Cytotoxicity test (MTT, 72 h). Conditions: Homo sapiens, HepG2, 72 h, read-out: 50% Inhibiting Concentration value (IC50).
The test system of another data set is A549. The data set can be described thus: Cytotoxicity test (MTT, 72 h). Conditions: Homo sapiens, A549, 72 h, read-out: 50% Inhibiting Concentration value (IC50).
The subject of the next data set is SKOV-3. The data set can be described thus: Cytotoxicity test (MTT, 72 h). As to conditions: Homo sapiens, SK-OV-3, 72 h, read-out: 50% Inhibiting Concentration value (IC50).
A further data set deals with SW-480. Nature of the data set: Cytotoxicity test (MTT, 72 h). As to conditions: Homo sapiens, SW480, 72 h, read-out: 50% Inhibiting Concentration value (IC50).
For a further data set, the system named is Hela. The data set can be described thus: Cytotoxicity test (MTT, 72 h). Conditions: Homo sapiens, read-out: 50% Inhibiting Concentration value (IC50).
A further data set concerns HCT-116. Nature of the data set: Cytotoxicity test (MTT, 72 h). Conditions: Homo sapiens, HCT-116, 72 h, read-out: 50% Inhibiting Concentration value (IC50).
Another data set deals with HT-29. The data set can be described thus: Cytotoxicity test (MTT, 72 h). Conditions: Homo sapiens, HT-29, 72 h, read-out: 50% Inhibiting Concentration value (IC50).
The subject of another data set is BGC-823. The data set can be described thus: Cytotoxicity test (MTT, 72 h). As to conditions: Homo sapiens, BGC-823, 72 h, read-out: 50% Inhibiting Concentration value (IC50).
For another data set, the system named is MDA-MB-231. The data set can be described thus: Cytotoxicity test (MTT, 72 h). As to conditions: Homo sapiens, MDA-MB-231, 72 h, read-out: 50% Inhibiting Concentration value (IC50).
Another data set has as its system TPC-1. Nature of the data set: Cytotoxicity test (MTT, 72 h). Conditions: Homo sapiens, TPC1, 72 h, read-out: 50% Inhibiting Concentration value (IC50).
A further data set relates to PC3. Nature of the data set: Cytotoxicity test (MTT, 72 h). Conditions: Homo sapiens, PC-3, 72 h, read-out: 50% Inhibiting Concentration value (IC50).
The next data set concerns H1975. The data set can be described thus: Cytotoxicity test (MTT, 72 h). As to conditions: Homo sapiens, NCI-H1975, 72 h, read-out: 50% Inhibiting Concentration value (IC50).
Another data set concerns PANC-1. The data set can be described thus: Cytotoxicity test (MTT, 72 h). As to conditions: Homo sapiens, PANC-1, 72 h, read-out: 50% Inhibiting Concentration value (IC50).
Another data set deals with 143B. Nature of the data set: Cytotoxicity test (MTT, 72 h). As to conditions: Homo sapiens, read-out: 50% Inhibiting Concentration value (IC50).
A further data set concerns K562. The data set can be described thus: Cytotoxicity test (MTT, 72 h). As to conditions: Homo sapiens, K562, 72 h, read-out: 50% Inhibiting Concentration value (IC50).
The test system of another data set is ECA-109. The data set can be described thus: Cytotoxicity test (MTT, 72 h). Conditions: Homo sapiens, ECa-109, 72 h, read-out: 50% Inhibiting Concentration value (IC50).
A short description of data set [1]: Solubility test, equilibrium method, UV-visible spectrophotometry. In kind it is physicochemical. As to conditions: thermodynamic from solid. The protocol:
The solubility test is carried out by equilibrium method. […] An appropriate amount of the compound is weighed and dissolved in 1 mL of methanol solution to prepare a control solution with a certain concentration (C0). The concentration of test solution is calculated according to the following formula: Cx=(Ax/A0)C0, wherein Cx is concentration of test solution, Ax is absorbance of test solution, C0 is concentration of control solution, and A0 is absorbance of control solution.

Setting [2] is: aqueous with cosolvent or surfactant or cyclodextrin.

Experimental for 143B: (§1) In order to investigate the antitumor activities of the compounds, a variety of tumor cell lines for test are selected. Cells at logarithmic growth period are inoculated in a 96-well plate overnight, then drugs with a certain gradient concentrations are added, and incubation is carried out in a cell culture chamber (5% CO2, 37° C.) for 72 h.
Experimental for A549: as §1
Experimental for BGC-823: as §1
Experimental for ECA-109: as §1
Experimental for H1975: as §1
Experimental for HCT-116: as §1
Experimental for HT-29: (§2) Cells at logarithmic growth period are inoculated in a 96-well plate overnight, then drugs with a certain gradient concentrations are added, and incubation is carried out in a cell culture chamber (5% CO2, 37° C.) for 72 h.
Experimental for Hela: as §1
Experimental for HepG2: as §1
Experimental for K562: as §1
Experimental for MDA-MB-231: as §1
Experimental for PANC-1: as §2
Experimental for PC3: as §1
Experimental for SKOV-3: as §2
Experimental for SW-480: as §2
Experimental for TPC-1: as §2

`CCc1c2c(nc3ccc(OC(=O)OCCOCc4cn([C@H]5O[C@@H](CO)[C@H](O)[C@@H](O)[C@@H]5O)nn4)cc13)-c1cc3c(c(=O)n1C2)COC(=O)[C@]3(O)CC` [Compound 37]: the IC50 in the data set with HepG2 was 2.19 µM; in the data set with A549 it was 13.1 µM; with SKOV-3 it was 2.63 µM; in the data set with SW-480, 0.014 µM; with Hela it was 12.7 µM; in the data set on HCT-116, 2.34 µM. Also, the IC50 in the data set on HT-29 was found to be 1.94 µM; with BGC-823, 1.25 µM; with MDA-MB-231 it was 1.82 µM; in the data set on TPC-1, 18.3 µM; in the data set on PC3, 10.9 µM; with H1975, 21.1 µM. Also, the IC50 in the data set with PANC-1 was 13.7 µM; with 143B, 17.6 µM; in the data set with K562 it was 1.95 µM; in the data set on ECA-109 it was 1.62 µM. The solubility in [1] (setting [2]) amounted to 360 µg/mL (≈ 497 µM); in data set [1] (pH 7.4, aqueous buffer), 54.4 µg/mL (≈ 75.2 µM); in data set [1] (saline or isotonic), 725 µg/mL (≈ 1000 µM); in data set [1] (water) it was 159 µg/mL (≈ 220 µM).
Consider `CCc1c2c(nc3ccc(OC(=O)OCCOCCOCCOCCOCc4cn([C@H]5O[C@@H](CO)[C@H](O)[C@@H](O)[C@@H]5O)nn4)cc13)-c1cc3c(c(=O)n1C2)COC(=O)[C@]3(O)CC` [Compound 42], for which the IC50 in the data set with HepG2 came out at 0.174 µM; with A549 it was 5.73 µM; in the data set on SKOV-3, 0.209 µM; in the data set on SW-480, 0.167 µM; in the data set on Hela it was 6.87 µM; in the data set with HCT-116, 3.01 µM. Moreover, the IC50 with HT-29 worked out at 13.5 µM; in the data set with BGC-823 it was 0.139 µM; with MDA-MB-231, 0.145 µM; with TPC-1, 15.3 µM; in the data set on PC3 it was 4.77 µM; with H1975, 12.8 µM. The IC50 is 6.87 µM in the data set with PANC-1, 10.6 µM in the data set with 143B, 2.5 µM in the data set on K562 and 11.3 µM in the data set on ECA-109. For the same molecule, the solubility in data set [1] (setting [2]) stood at 120 µg/mL (≈ 140 µM); in data set [1] (pH 7.4, aqueous buffer), 85.2 µg/mL (≈ 99.6 µM); in data set [1] (saline or isotonic) it was 5870 µg/mL (≈ 6860 µM); in data set [1] (water), 162 µg/mL (≈ 189 µM).
For `CCc1c2c(nc3ccc(OC(=O)OCCOCCOCc4cn([C@H]5O[C@@H](CO)[C@H](O)[C@@H](O)[C@@H]5O)nn4)cc13)-c1cc3c(c(=O)n1C2)COC(=O)[C@]3(O)CC` [Compound 47], the IC50 with HepG2 was 2.74 µM; in the data set on A549, 2.95 µM; in the data set on SKOV-3 it was 3.29 µM; with SW-480, 0.274 µM; with Hela it was 3.54 µM; with HCT-116, 0.273 µM. The IC50 in the data set with HT-29 came to 0.694 µM; with BGC-823, 0.228 µM; with MDA-MB-231, 2.28 µM; in the data set with TPC-1, 12.9 µM; in the data set with PC3 it was 2.46 µM; in the data set on H1975, 10.8 µM. Further, the IC50 in the data set with PANC-1 stood at 3.54 µM; in the data set with 143B, 8.96 µM; with K562 it was 0.228 µM; in the data set with ECA-109 it was 0.578 µM. Further, the solubility stood at 650 µg/mL (≈ 846 µM) in data set [1] (setting [2]); 60.8 µg/mL (≈ 79.2 µM) in data set [1] (pH 7.4, aqueous buffer); 511 µg/mL (≈ 665 µM) in [1] (saline or isotonic); 109 µg/mL (≈ 142 µM) in data set [1] (water).
Turning to `CCc1c2c(nc3ccc(OC(=O)OCCOCCOCCOCc4cn([C@H]5O[C@@H](CO)[C@H](O)[C@@H](O)[C@@H]5O)nn4)cc13)-c1cc3c(c(=O)n1C2)COC(=O)[C@]3(O)CC` [Compound 52], the IC50 in the data set on HepG2 worked out at 8.22 µM; with A549, 11.1 µM; with SKOV-3, 9.86 µM; with SW-480, 0.167 µM; in the data set on Hela, 13.3 µM; in the data set with HCT-116 it was 0.527 µM. In addition, the IC50 in the data set on HT-29 came to 0.859 µM; in the data set on BGC-823, 0.139 µM; in the data set on MDA-MB-231, 6.85 µM; with TPC-1 it was 26.1 µM; with PC3, 9.26 µM; with H1975, 21.8 µM. Further, the IC50 was 13.3 µM in the data set on PANC-1, 18.1 µM with 143B, 0.439 µM with K562 and 0.716 µM in the data set with ECA-109. Besides, the solubility is 320 µg/mL (≈ 394 µM) in data set [1] (setting [2]); 85.2 µg/mL (≈ 105 µM) in data set [1] (pH 7.4, aqueous buffer); 446 µg/mL (≈ 549 µM) in data set [1] (saline or isotonic); 3050 µg/mL (≈ 3750 µM) in data set [1] (water).
Regarding `CCc1c2c(nc3ccc(OC(=O)OCCOCc4cn(CCO[C@H]5O[C@@H](CO)[C@H](O)[C@@H](O)[C@@H]5O)nn4)cc13)-c1cc3c(c(=O)n1C2)COC(=O)[C@]3(O)CC` [Compound 56], the IC50 with HepG2 was determined as 10.2 µM; in the data set with A549, 4.7 µM; in the data set on SKOV-3, 12.3 µM; with SW-480, 0.112 µM; with Hela, 5.63 µM; in the data set on HCT-116, 0.137 µM. The IC50 in the data set on HT-29 was 9.39 µM; in the data set with BGC-823, 0.093 µM; in the data set with MDA-MB-231, 8.53 µM; in the data set on TPC-1, 9.9 µM; in the data set with PC3, 3.91 µM; with H1975, 8.25 µM. The IC50 is 5.63 µM in the data set with PANC-1, 6.88 µM with 143B, 0.114 µM in the data set with K562 and 7.83 µM with ECA-109. In addition, the solubility stood at 2180 µg/mL (≈ 2830 µM) in data set [1] (setting [2]); 85.2 µg/mL (≈ 111 µM) in [1] (pH 7.4, aqueous buffer); 1110 µg/mL (≈ 1440 µM) in [1] (saline or isotonic); 636 µg/mL (≈ 828 µM) in data set [1] (water).
With `CCc1c2c(nc3ccc(OC(=O)OCCOCCOCc4cn(CCO[C@H]5O[C@@H](CO)[C@H](O)[C@@H](O)[C@@H]5O)nn4)cc13)-c1cc3c(c(=O)n1C2)COC(=O)[C@]3(O)CC` [Compound 57], the IC50 in the data set on HepG2 was 5.15 µM; in the data set on A549 it was 20.9 µM; with SKOV-3, 6.17 µM; in the data set with SW-480, 0.164 µM; with Hela it was 15.1 µM; with HCT-116, 1.39 µM. Further, the IC50 was 1.68 µM in the data set with HT-29; 0.137 µM with BGC-823; 4.29 µM in the data set with MDA-MB-231; 14.6 µM with TPC-1; 17.4 µM in the data set with PC3; 12.1 µM with H1975. The IC50 turned out to be 22.1 µM with PANC-1, 10.1 µM in the data set with 143B, 1.16 µM in the data set with K562 and 1.4 µM with ECA-109. For the same molecule, the solubility in data set [1] (setting [2]) amounted to 6460 µg/mL (≈ 7950 µM); in data set [1] (pH 7.4, aqueous buffer), 361 µg/mL (≈ 444 µM); in data set [1] (saline or isotonic) it was 4290 µg/mL (≈ 5290 µM); in data set [1] (water), 178 µg/mL (≈ 219 µM).
Take `CCc1c2c(nc3ccc(OC(=O)OCCOCCOCCOCCOCc4cn(CCO[C@H]5O[C@@H](CO)[C@H](O)[C@@H](O)[C@@H]5O)nn4)cc13)-c1cc3c(c(=O)n1C2)COC(=O)[C@]3(O)CC` [Compound 59]: the IC50 was found to be 2.73 µM in the data set on HepG2; 8.03 µM in the data set on A549; 3.28 µM in the data set on SKOV-3; 1.21 µM in the data set with SW-480; 9.64 µM with Hela; 1.67 µM in the data set on HCT-116. For the same molecule, the IC50 in the data set on HT-29 came out at 1.13 µM; in the data set with BGC-823, 1.01 µM; with MDA-MB-231, 2.28 µM; in the data set with TPC-1 it was 12.6 µM; with PC3, 6.69 µM; in the data set on H1975 it was 10.5 µM. Moreover, the IC50 came to 9.64 µM in the data set with PANC-1, 8.77 µM in the data set on 143B, 1.39 µM in the data set on K562 and 0.939 µM in the data set with ECA-109. Also, the solubility amounted to 1200 µg/mL (≈ 1340 µM) in data set [1] (setting [2]); 984 µg/mL (≈ 1090 µM) in [1] (pH 7.4, aqueous buffer); 854 µg/mL (≈ 949 µM) in data set [1] (saline or isotonic); 1480 µg/mL (≈ 1650 µM) in [1] (water).
